The text below walks through data of ChEMBL document CHEMBL1124488 (J Med Chem, 1989).

SMILES strings stand for the structures.

In this assay the target is Mu-type opioid receptor (Cavia porcellus, UniProt P97266). Description: Inhibitory activity against opioid receptor mu of guinea pig brain using [3H]DAGO radioligand.
Chain of Mu-type opioid receptor (P97266 whole entry): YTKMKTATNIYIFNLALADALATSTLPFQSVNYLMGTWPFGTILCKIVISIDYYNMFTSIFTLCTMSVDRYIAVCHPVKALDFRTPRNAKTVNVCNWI

One may read the IC50 as the concentration that inhibits the measured activity by half. Low readings indicate greater potency, high ones weaker potency. `CN1CC[C@]23CCCC[C@H]2[C@H]1Cc1ccc(O)cc13` [LEVORPHANOL] yielded an IC50 of 600 pM.
